According to US20240293337A1, “USE OF DOXERCALCIFEROL TO TREAT AND/OR PREVENT UTERINE FIBROIDS OR POLYCYSTIC OVARY SYNDROME” (priority 2023, published 2024):

Assays:
SW872 cells = assay: Obesity related cytokine antibody array of SW872 secretomes; format: cell-based, human; conditions: SW872 secretome, 10 nM, 24 hours
Description: SW872 cells are subcultured in T75 flasks for 24 hours. Cells are then treated for 24 hours with serum free basal media as a control or doxercalciferol at 1 nM, 10 nM, or 100 nM diluted in basal media (serum-free). After the incubation period, cells are imaged and analyzed for morphology and cell count. Cells are then collected for analysis of adipogenesis-related gene expression and cell culture media are collected for analysis of obesity related cytokines. Cell culture media are collected from SW872 cells after 24 hours of 10 nM doxercalciferol treatment. The media is analyzed for obesity related cytokines using a membrane-based antibody array (Ray Biotech, GA, USA) per the manufacturer's protocol, and then quantified using a multimode microplate reader system, Varioskan LUX Multimode Microplate Reader (Thermo Fisher).

H295R cells [1] = assay: H295R theca-like cells, cell morphology and cell number after 24 h treatment; format: cell-based, human; conditions: 100 nM
Description: Human adrenocortical-carcinoma cells (H295R cells) are used as an in vitro cell culture model of ovarian theca cells to assess androgen production. H295R cells are purchased from ATCC (Manassas, VA, USA, cat. no. ATCC® CRL-2128™) and cultured per the recommended guidelines. These cells are isolated from a donor. Briefly, H295R cells are cultured in flasks pre-coated with extracellular matrix (Gibco, USA, cat. no. S-006-100) with DMEM/F12 (Gibco, cat. no. 21041025) and 2.5% Nu-Serum (Corning, USA). The cells are subcultured at a ratio of 1:4, resulting in a cell density of approximately 3×10^6 in T75 flasks.
(§1) H295R cells are subcultured in T75 flasks for 24 hours. Cells are then treated for 24 hours with serum free basal media as a control or doxercalciferol at 1 nM, 10 nM, or 100 nM diluted in basal media (serum-free) at a 1:1 ratio. After the incubation period, cells are imaged and analyzed for morphology and cell count. Cells are then collected for analysis of steroidogenesis-related gene expression. Cell culture media are collected and used for testosterone quantification using ELISA based Testosterone Parameter Assay Kit (R&D system) per the manufacturer's protocol. The testosterone level is quantified using a multimode microplate reader system, Varioskan LUX Multimode Microplate Reader (Thermo Fisher).

[2] = Body weight change in PDX UF mice; format: in vivo, NOD/SCID mice; conditions: 300 ng/kg i.p. 3 times per week, 6 weeks
Description: After xenograft mice undergo intraperitoneal injection of doxercalciferol (300 ng/kg, 3 times per week) or saline for 6 weeks. Body weight is monitored weekly during doxercalciferol treatment. Six weeks after doxercalciferol treatment insulin resistance is assessed using GTT and then mice are anesthetized and blood is collected to measure liver enzyme and AMH levels, ovary tissue is removed for histological analysis, total RNA is extracted for sequencing, and tumor size is measured with a digital caliper.

[3] = system: letrozole induced polycystic ovary syndrome (PCOS) mouse models; assay: Glucose tolerance test in PCOS mice; format: in vivo, C57BL/6 mice; conditions: 300 ng/kg i.p. 3 times per week, 120 minutes after IP glucose injection
Description: At 3.5 weeks of age, mice (n=11/group) are subcutaneously implanted with a placebo or 5 mg letrozole (LTZ) pellet (Innovative Research of America, Sarasota, FL, USA), which provides a constant release of LTZ (50 μg/day). Body weight is monitored weekly before and post-implantation. Body weight and insulin resistance (measured by glucose tolerance test, GTT) are used to monitor development of PCOS characteristics.
Five weeks after placebo or LTZ pellet implantation, mice undergo intraperitoneal injection of doxercalciferol (300 ng/kg) or saline 3 times per week for 6 weeks. Six weeks after doxercalciferol treatment, the mice are anesthetized and ovary, uterus, gonadal white fat, kidney, and liver tissue are collected. Each of these tissues are fixed in 4% paraformaldehyde for further histological analysis.
Glucose tolerance testing is performed on healthy, PCOS, and treated mice 3 weeks after doxercalciferol treatment. Mice are fasting for 16 h (5 p.m. to 9 a.m.), with free access to drinking water, after which they receive an intra-peritoneal (i.p.) injection of D-glucose (2.0 g/kg body weight). Blood glucose level is measured at 0, 15, 30, 60, 90, and 120 minutes following glucose injection using a Bayer glucose monitor (Roche Diagnostics Corp, IN, USA).

H295R cells [4] = assay: Androgen producing gene expression in H295R cells (qPCR); format: cell-based, human; conditions: 24 hours
Description: as §1
RNA is extracted from H295R cells treated with doxercalciferol. RNA extraction is done using TRIzol (Invitrogen, USA) according to the manufacturer's instructions. The concentration and purity of the extracted RNA are checked using a NanoDrop spectrometer (Thermo Scientific, MA, USA). For qPCR of steroidogenesis related genes in H295R cells 1 μg of total RNA is reverse transcribed using RNA to cDNA EcoDry™ Premix (Double Primed) (Takara Bio USA Inc., CA, USA). The reaction mixture is incubated for 1 hour at 42° C.; incubation is stopped at 70° C. for 10 min. qPCR is performed using the CFX96 PCR instrument and SYBR Green Supermix (Bio-Rad, Hercules, CA, USA) with specific primers (RT^2 Profiler PCR Array for Human Adipogenesis, PAHS-049ZA, QIAGEN) to the target genes in a 20 μL final reaction volume. The delta-delta threshold cycle (ΔΔCt) method is used to calculate the fold change expression in mRNA level in the samples.

In the case of `C=C1/C(=C\C=C2/CCC[C@]3(C)[C@@H]([C@H](C)/C=C/[C@H](C)C(C)C)CC[C@@H]23)C[C@@H](O)C[C@@H]1O` [doxercalciferol], the CCL5 cytokine production (SW872 cells) is reported as “significantly downregulates”, the CCL18 cytokine production (SW872 cells) is reported as “significantly downregulates” and the CXCL10 cytokine production (SW872 cells) is reported as “significantly downregulates”. For the same molecule, the MIF cytokine production (SW872 cells) was “significantly downregulates”, the TIMP-2 cytokine production (SW872 cells) was “significantly downregulates” and the “TNF RII cytokine production” value (SW872 cells) was “significantly downregulates”. For the same molecule, the “TNF alpha cytokine production” value (SW872 cells) was “significantly downregulates”, the cell morphology (H295R cells [1]) was “most of the cells in the 100 nM doxercalciferol treatment group are dead” and the cell number (H295R cells [1]; vs other groups) was “significantly fewer cells”. The “decrease in body weight” value [2] was 24%, the “blood glucose levels, vs control mice” value [3] was “elevated levels compared to control mice” and the “blood glucose levels, vs untreated PCOS mice” value [3] was “significantly lower blood glucose levels”. For the same molecule, the CYP11A1 gene expression (H295R cells [4]; 1 nM) was “not significantly changed”, the CYP17A1 gene expression (H295R cells [4]; 1 nM) was “significantly increased” and the CYP11A1 gene expression (H295R cells [4]; 10 nM) was “significantly increased”. The CYP17A1 gene expression (H295R cells [4]; 10 nM) was “not significantly changed”, the CYP11A1 gene expression (H295R cells [4]; 100 nM) was “significantly decreased” and the CYP17A1 gene expression (H295R cells [4]; 100 nM) was “significantly decreased”.
